From ChEMBL document CHEMBL1135599, “Synthesis and evaluation of potent and selective beta(3) adrenergic receptor agonists containing acylsulfonamide, sulfonylsulfonamide, and sulfonylurea carboxylic acid isosteres” (J Med Chem, 2002)

Experiments:
[1] = molecular target: T1, Beta-1 adrenergic receptor (Homo sapiens, UniProt P08588); assay: Concentration that causes 50% inhibition of human beta 1 adrenergic receptor (AR), expressed in CHO cells.; type: functional, cell-based
Target sequence in this assay (P08588 whole entry): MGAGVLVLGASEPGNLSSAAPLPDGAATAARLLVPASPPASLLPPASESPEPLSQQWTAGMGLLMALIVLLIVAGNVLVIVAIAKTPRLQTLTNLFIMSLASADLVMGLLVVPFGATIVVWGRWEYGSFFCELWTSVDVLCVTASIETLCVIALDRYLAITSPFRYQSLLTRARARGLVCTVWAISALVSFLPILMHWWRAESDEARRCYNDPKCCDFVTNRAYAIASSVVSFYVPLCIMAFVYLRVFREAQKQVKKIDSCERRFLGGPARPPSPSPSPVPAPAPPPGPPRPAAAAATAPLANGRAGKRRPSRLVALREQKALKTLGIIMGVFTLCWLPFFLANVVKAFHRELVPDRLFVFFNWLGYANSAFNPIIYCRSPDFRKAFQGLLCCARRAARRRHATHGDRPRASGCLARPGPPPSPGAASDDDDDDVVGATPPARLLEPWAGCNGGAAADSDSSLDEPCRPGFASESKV

[2] = Half life (t1/2) value in dogs after an intravenous dose of 0.2 mg/Kg; type: ADME, organism-based, Canis lupus familiaris; conditions: dog, in vivo
[3] = molecular target: T2, Beta-3 adrenergic receptor (Homo sapiens, UniProt P13945); assay: Ability to cause cAMP accumulation in CHO cells expressing human beta-3 AR expressed as the negative logarithm of the molar drug concentration; type: functional, cell-based
Target sequence in this assay (P13945 whole entry): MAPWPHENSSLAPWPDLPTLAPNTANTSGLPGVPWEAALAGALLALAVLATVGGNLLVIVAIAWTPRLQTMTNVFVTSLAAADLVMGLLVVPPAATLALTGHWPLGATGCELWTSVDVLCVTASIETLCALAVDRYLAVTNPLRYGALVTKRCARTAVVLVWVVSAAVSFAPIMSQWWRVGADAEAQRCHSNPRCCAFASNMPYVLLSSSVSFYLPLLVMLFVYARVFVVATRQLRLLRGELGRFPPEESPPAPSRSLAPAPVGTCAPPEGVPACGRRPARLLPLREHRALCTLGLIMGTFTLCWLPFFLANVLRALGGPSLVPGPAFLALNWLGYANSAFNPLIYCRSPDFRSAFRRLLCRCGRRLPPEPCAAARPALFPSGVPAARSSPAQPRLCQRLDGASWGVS

[4] = Volume distribution in dogs after an intravenous dose of 0.2 mg/Kg; type: ADME, organism-based; conditions: dog, in vivo
Canis familiaris = assay: Plasma clearance in dogs after an intravenous dose of 0.2 mg/Kg; type: ADME, organism-based, Canis lupus familiaris; conditions: dog, in vivo
[5] = molecular target: T2, Beta-3 adrenergic receptor; assay: (§1) concentration-response expressed as a percent of the maximal response to R-(-) isoproterenol (ISO).Emax is the fitted maximal value of the concentration; type: functional
Target sequence in this assay (P13945 whole entry, looked up): as the sequence (P13945 whole entry) above

[6] = molecular target: T1, Beta-1 adrenergic receptor; assay: as §1; type: functional
Target sequence in this assay (P08588 whole entry, looked up): as the sequence (P08588 whole entry) above

[7] = molecular target: T3, Beta-2 adrenergic receptor (Homo sapiens, UniProt P07550); assay: as §1; type: functional
Target sequence in this assay (P07550 whole entry, looked up): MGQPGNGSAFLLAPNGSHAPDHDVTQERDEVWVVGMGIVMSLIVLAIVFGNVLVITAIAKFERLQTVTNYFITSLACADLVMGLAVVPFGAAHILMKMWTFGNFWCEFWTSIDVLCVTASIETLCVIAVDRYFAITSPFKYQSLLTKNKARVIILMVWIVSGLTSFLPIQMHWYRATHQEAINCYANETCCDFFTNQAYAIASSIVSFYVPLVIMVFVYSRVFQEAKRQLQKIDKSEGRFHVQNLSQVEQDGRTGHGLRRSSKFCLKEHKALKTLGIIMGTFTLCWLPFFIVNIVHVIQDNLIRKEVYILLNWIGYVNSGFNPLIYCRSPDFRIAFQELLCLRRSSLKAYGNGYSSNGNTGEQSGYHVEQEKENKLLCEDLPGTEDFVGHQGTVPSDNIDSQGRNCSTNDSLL

[8] = Area under curve (AUC) value in dogs after an intravenous dose of 0.2 mg/Kg in 0.025 M aqueous methanesulfonic acid solution with 5% mannitol; type: ADME; conditions: dog, in vivo
[9] = Selectivity ratio (Beta-1EC50/ Beta-3EC50); type: functional
[10] = Selectivity ratio (Beta-2EC50/ Beta-3EC50); type: functional
[11] = molecular target: T3, Beta-2 adrenergic receptor; assay: Concentration that causes 50% inhibition of human beta 2 adrenergic receptor (AR), expressed in CHO cells.; type: functional, cell-based
Target sequence in this assay (P07550 whole entry): as the sequence (P07550 whole entry, looked up) above

[12] = molecular target: T3, Beta-2 adrenergic receptor; assay: Ability to cause cAMP accumulation in CHO cells expressing human beta-2 AR expressed as the negative logarithm of the molar drug concentration; type: functional, cell-based
Target sequence in this assay (P07550 whole entry): as the sequence (P07550 whole entry, looked up) above

[13] = molecular target: T1, Beta-1 adrenergic receptor; assay: Ability to cause cAMP accumulation in CHO cells expressing human beta-1 AR expressed as the negative logarithm of the molar drug concentration; type: functional, cell-based
Target sequence in this assay (P08588 whole entry): as the sequence (P08588 whole entry) above

[14] = molecular target: T2, Beta-3 adrenergic receptor
Target sequence in this assay (P13945 whole entry): as the sequence (P13945 whole entry) above

[15] = molecular target: T3, Beta-2 adrenergic receptor; assay: Activity against human beta 2 adrenergic receptor (AR), expressed in CHO cells; type: functional, cell-based
Target sequence in this assay (P07550 whole entry): as the sequence (P07550 whole entry, looked up) above

[16] = plasma concentration at the 2.5 hour time; significant; type: ADME
[17] = molecular target: T3, Beta-2 adrenergic receptor; assay: concentration-response expressed as a percent of the maximal response to R-(-) isoprenaline (ISO); type: functional
Target sequence in this assay (P07550 whole entry, looked up): as above

[18] = molecular target: T2, Beta-3 adrenergic receptor; assay: (§2) concentration-response expressed as a percent of the maximal response to R-(-) isoproterenol (ISO); type: functional
Target sequence in this assay (P13945 whole entry, looked up): as the sequence (P13945 whole entry) above

[19] = molecular target: T1, Beta-1 adrenergic receptor; assay: as §2; type: functional
Target sequence in this assay (P08588 whole entry, looked up): as the sequence (P08588 whole entry) above

[20] = molecular target: T2, Beta-3 adrenergic receptor; assay: Activity against human beta 3 adrenergic receptor (AR), expressed in CHO cells.; type: functional, cell-based
Target sequence in this assay (P13945 whole entry): as the sequence (P13945 whole entry) above

[21] = molecular target: T3, Beta-2 adrenergic receptor; assay: concentration-response expressed as a percent of the maximal response to R-(-) isoprenaline (ISO).Emax is the fitted maximal value of the concentration; type: functional
Target sequence in this assay (P07550 whole entry, looked up): as the sequence (P07550 whole entry, looked up) above

[22] = plasma concentration at the 2.5 hour time; type: ADME; conditions: read-out: C
[23] = molecular target: T3, Beta-2 adrenergic receptor; assay: Receptor binding assay(Beta-2 adrenergic receptor) carried out with membranes prepared from human recombinant Sf9 cells expressing the cloned human receptor in the presence of [125I]iodocyanopindolol; type: cell membranes
Target sequence in this assay (P07550 whole entry): as the sequence (P07550 whole entry, looked up) above

[24] = molecular target: T1, Beta-1 adrenergic receptor; assay: Receptor binding assay(Beta-1 adrenergic receptor) carried out with membranes prepared from human recombinant Sf9 cells expressing the cloned human receptor in the presence of [125I]iodocyanopindolol; type: cell membranes
Target sequence in this assay (P08588 whole entry): as the sequence (P08588 whole entry) above

[25] = Area under curve (AUC) value in dogs after an intravenous dose of 0.2 mg/Kg in 0.025 M aqueous methanesulfonic acid solution with 5% mannitol at a concentration of 0.2; type: ADME, organism-based, Canis lupus familiaris; conditions: dog, in vivo

| SMILES | Emax [5] | Emax [6] | Emax [7] | Ratio [9] | Ratio [10] | EC50 [12] | EC50 [13] | EC50 [14] | other results |
| --- | --- | --- | --- | --- | --- | --- | --- | --- | --- |
| C[C@H](CNc1ccc(CCS(=O)(=O)NC(=O)c2ccccc2)cc1)NC[C@H](O)c1cccc(Cl)c1 | 100% | 27% | 52% | 79 | 32 | – | – | – | EC50 [1]: 794 nM; half-life [2]: 1.2 h; EC50 [3]: 10 nM; Vd [4]: 0.478 L/kg; Clp (Canis familiaris): 8.7 mL/min/kg; AUC [8]: 383 ng·h/mL; EC50 [11]: 316 nM |
| C[C@H](CNc1ccc(CCC(=O)O)cc1)NC[C@H](O)c1cccc(Cl)c1 | 104% | 10% | 22% | 10 | 16 | 398 nM | 251 nM | 25.1 nM | – |
| C[C@H](CNc1cccc(CCS(=O)(=O)NS(=O)(=O)c2ccccc2)c1)NC[C@H](O)c1cccc(Cl)c1 | – | – | – | > 500 | 630 | – | – | – | EC50 [15]: 1000 nM; C [16]: Not Active; Emax [17]: 31%; half-life [2]: < 1 h; Emax [18]: 113%; Emax [19]: 21%; EC50 [20]: 1.58 nM |
| C[C@H](Cc1ccc(OCC(=O)O)cc1)NC[C@H](O)c1cccc(Cl)c1 | – | 28% | – | – | – | – | – | – | Emax [21]: 80% |
| C[C@H](CNc1ccc(CNS(C)(=O)=O)cc1)NC[C@H](O)c1cccc(Cl)c1 | 102% | 11% | 66% | 0.4 | 0.4 | 5.01 nM | 5.01 nM | 20 nM | – |
| Cc1ccc(CNC(=O)Cc2ccc(NC[C@@H](C)NC[C@H](O)c3cccc(Cl)c3)cc2)cc1 | 126% | 12% | 40% | 0.4 | 0.02 | 1 nM | 25.1 nM | – | EC50 [3]: 63.1 nM |
| Cc1ccc(S(=O)(=O)NCCc2ccc(NC[C@@H](C)NC[C@H](O)c3cccc(Cl)c3)cc2)cc1 | 98% | 22% | 28% | 1 | 0.5 | 10 nM | 20 nM | – | EC50 [3]: 20 nM |
| C[C@H](CNc1ccccc1)NC[C@H](O)c1cccc(Cl)c1 | 105% | 27% | 100% | 0.3 | 0.5 | 10 nM | 5.01 nM | 20 nM | – |
| C[C@H](CNc1ccc(CC(=O)NS(C)(=O)=O)cc1)NC[C@H](O)c1cccc(Cl)c1 | 96% | 30% | 78% | 20 | 4 | 20 nM | 100 nM | 5.01 nM | – |
| C[C@H](CNc1ccc(CC(=O)NS(=O)(=O)c2ccccc2)cc1)NC[C@H](O)c1cccc(Cl)c1 | 110% | 22% | 59% | 1000 | 40 | 31.6 nM | 794 nM | 0.794 nM | – |
| C[C@H](CNc1cccc(CNC(=O)NS(=O)(=O)c2ccccc2)c1)NC[C@H](O)c1cccc(Cl)c1 | 105% | 15% | 23% | 25 | 16 | – | – | – | EC50 [1]: 398 nM; half-life [2]: < 1 h; EC50 [3]: 15.8 nM; EC50 [11]: 251 nM |
| Cc1ccc(S(=O)(=O)NC(=O)Cc2cccc(NC[C@@H](C)NC[C@H](O)c3cccc(Cl)c3)c2)cc1 | 98% | 8% | 16% | > 794 | > 158 | – | – | 6.31 nM | EC50 [1]: > 5010 nM; concentration at 2.5 h [22]: 10.3 ng/mL; IC50 [23]: 15800 nM; half-life [2]: 1.7 h; Vd [4]: 0.409 L/kg; Clp (Canis familiaris): 11.9 mL/min/kg; IC50 [24]: 5010 nM; AUC [8]: 279 ng·h/mL; EC50 [11]: > 1000 nM |
| C[C@H](CNc1ccc(C(=O)O)cc1)NC[C@H](O)c1cccc(Cl)c1 | 79% | 17% | 70% | 0.8 | 4 | 3160 nM | 631 nM | 794 nM | – |
| C[C@H](CNc1ccc(CC(=O)Nc2nccs2)cc1)NC[C@H](O)c1cccc(Cl)c1 | 101% | 14% | 31% | 2.5 | 6.3 | 7.94 nM | 3.16 nM | 1.26 nM | – |
| CC(=O)NCc1ccc(NC[C@@H](C)NC[C@H](O)c2cccc(Cl)c2)cc1 | 123% | 15% | 75% | 0.6 | 0.3 | 3.16 nM | 7.94 nM | 12.6 nM | – |
| C[C@H](CNc1cccc(CC(=O)O)c1)NC[C@H](O)c1cccc(Cl)c1 | 117% | 6% | – | – | 0.2 | 50.1 nM | > 10000 nM | 316 nM | Emax [21]: 80% |
| C[C@H](CNc1ccc(CC(=O)O)cc1)NC[C@H](O)c1cccc(Cl)c1 | – | – | – | 5 | 3.1 | 50.1 nM | 79.4 nM | 15.8 nM | IC50 [23]: 794 nM; Emax [21]: 90%; IC50 [24]: 1000 nM |
| Cc1ccc(S(=O)(=O)NC(=O)Cc2ccc(NC[C@@H](C)NC[C@H](O)c3cccc(Cl)c3)cc2)cc1 | 98% | 23% | 34% | 501 | 63 | 79.4 nM | 631 nM | 1.26 nM | concentration at 2.5 h [22]: 42.1 ng/mL; IC50 [23]: 5010 nM; half-life [2]: 1 h; AUC [25]: 715 ng·h/mL; Vd [4]: 0.2 L/kg; Clp (Canis familiaris): 4.7 mL/min/kg; IC50 [24]: 2000 nM |
